Target: EGFR (human) (UniProt P00533)
Details: mda-mb-231

Chain of EGFR (human) (P00533 whole entry, looked up): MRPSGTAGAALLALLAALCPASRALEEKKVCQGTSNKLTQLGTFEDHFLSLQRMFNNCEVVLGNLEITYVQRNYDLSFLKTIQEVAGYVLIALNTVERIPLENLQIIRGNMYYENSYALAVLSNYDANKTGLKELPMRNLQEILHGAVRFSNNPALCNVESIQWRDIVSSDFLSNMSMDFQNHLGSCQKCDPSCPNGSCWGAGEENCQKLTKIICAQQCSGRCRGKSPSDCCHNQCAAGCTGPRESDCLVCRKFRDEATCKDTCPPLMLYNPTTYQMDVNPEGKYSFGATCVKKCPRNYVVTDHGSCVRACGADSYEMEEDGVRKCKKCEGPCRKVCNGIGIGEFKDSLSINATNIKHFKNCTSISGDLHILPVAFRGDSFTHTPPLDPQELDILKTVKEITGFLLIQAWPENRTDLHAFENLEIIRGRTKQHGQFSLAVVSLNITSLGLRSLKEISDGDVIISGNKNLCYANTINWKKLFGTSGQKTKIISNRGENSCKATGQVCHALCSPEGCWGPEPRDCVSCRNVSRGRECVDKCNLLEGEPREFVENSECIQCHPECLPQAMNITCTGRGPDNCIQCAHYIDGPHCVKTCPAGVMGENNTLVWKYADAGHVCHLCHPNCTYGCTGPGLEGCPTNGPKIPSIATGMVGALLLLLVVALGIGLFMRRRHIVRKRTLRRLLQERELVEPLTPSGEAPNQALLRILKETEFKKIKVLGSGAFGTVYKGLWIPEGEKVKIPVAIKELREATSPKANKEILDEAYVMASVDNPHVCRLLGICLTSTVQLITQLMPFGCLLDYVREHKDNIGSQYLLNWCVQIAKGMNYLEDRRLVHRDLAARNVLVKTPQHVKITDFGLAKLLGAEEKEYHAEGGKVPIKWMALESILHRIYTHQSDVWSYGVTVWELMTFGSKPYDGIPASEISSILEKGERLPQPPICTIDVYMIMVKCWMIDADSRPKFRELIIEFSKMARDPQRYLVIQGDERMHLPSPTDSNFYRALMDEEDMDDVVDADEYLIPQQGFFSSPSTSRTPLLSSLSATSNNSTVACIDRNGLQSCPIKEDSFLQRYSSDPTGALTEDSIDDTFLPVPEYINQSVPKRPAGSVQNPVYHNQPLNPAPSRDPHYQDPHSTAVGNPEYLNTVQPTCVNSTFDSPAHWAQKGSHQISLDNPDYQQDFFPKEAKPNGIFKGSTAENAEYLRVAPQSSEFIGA

Row | SMILES | IC50
1 | C/C(O)=C(/C#N)C(=O)Nc1ccc(OC(F)(F)F)cc1 | 28.4 µM
2 | Cc1oncc1C(=O)Nc1ccc(C(F)(F)F)cc1 | 97 µM
